From patent publication EP3281644A1, “STABLE FLUORESCENT NANOVESICLES, METHOD FOR OBTAINING THEM AND USES THEREOF” (Consejo Superior De Investigaciones Científicas, priority 2016, dated 2018)

Tests used:
[1] = Photochemical decomposition quantum yield under continuous laser irradiation; assay type: physicochemical; conditions: free dye in EtOH; diode laser 660 nm
Description: Photostabilities of DiD in EtOH and of DiD-nanovesicles were analyzed by monitoring the evolution over time of absorbance of the samples under continuous laser irradiation. The data are shown in Table below and are also represented in Figure 8. Additional column in Table 1 for rows of DiD
The quantum yields of photoreaction were calculated following the method proposed by Belfield et al. "Photophysical and photochemical properties of 5,7-di-methoxycoumarin under one- and two-photon excitation". J. Phys. Org. Chem. 16, 69-78 (2003).
Sample photostability under continuous-wave excitation was determined by measuring the photochemical decomposition quantum yield. […]
Quantum yields of photochemical decomposition were measured in ethanol (for DID) and water (FI, NDB and all nanovesicle samples) using absorption and fluorescence methods, where the number of bleached molecules is determined by a kinetic decrease in absorbance or fluorescence intensity under the assumption that fluorescence and absorbance of the photoproducts are negligible in the spectral region of dye fluorescence and main absorption band. Fluorescence method was used to estimate the photostability of dilute samples (with maximum absorbance < 0.1), while photochemical decomposition quantum yields of concentrated solutions (with maximum absorbance ≈ 1) were determined by absorption method. […]

[2] = reference standard; in methanol; cited from earlier work

Row | Compound | Photodecomposition QY*10^-5 [1] | QY, Φ [2]
1 | CCCCCCCCCCCCCCCCCCN1C(=CC=CC=CC2=[N+](CCCCCCCCCCCCCCCCCC)c3ccccc3C2(C)C)C(C)(C)c2ccccc21.[O-][Cl+3]([O-])([O-])[O-] [DiD EtOH, 1,1'-dioctadecyl-3,3,3',3'-tetramethyl-indodicarbocyanine perchlorate] | <0,008 *10^-5 | –
2 | cresyl violet | – | 56%
